Earlier results on 1 compound are cited in patent publication US20120263802A1 (priority 2003, published 2012).

One series concerns range of models. Conditions: once-daily oral administration; Wedge et al, Proc. Am. Assoc. Canc. Res. 2001; 42: abstract 3126.

Consider `COc1cc2c(Nc3ccc(Br)cc3F)ncnc2cc1OCC1CCN(C)CC1` [ZD6474, 4-(4-bromo-2-fluoroanilino)-6-methoxy-7-(1-methylpiperidin-4-ylmethoxy)quinazoline], for which, in the series on VEGF RTK, the “inhibition of VEGF RTK” value is “potent inhibitor”. For the same compound, the anti-tumour activity result in the series with range of models is recorded as “broad-spectrum anti-tumour activity”.
